The text below walks through data of PubChem BioAssay AID1259407 (Chemical Carcinogenesis Research Information System (CCRIS), 2018).

Active and inactive are the calls of the source. No rule for the calls is given here.

This data set concerns CCRIS mutagenicity, Ames/micronucleus/aberration tests. In words: CCRIS mutagenicity studies.
The mark [1] stands for this setting: Test System: AMES SALMONELLA TYPHIMURIUM, Strain/Indicator: TA100, Metabolic Activation: NONE, Method: PREINCUBATION

Turning to `C=C1/C(=C\C=C2/CCC[C@]3(C)[C@@H]([C@H](C)CC[C@@H](O)C(C)C)CC[C@@H]23)C[C@@H](O)C[C@@H]1O`, the mutagenic call was “inactive; negative” (Test System: AMES SALMONELLA TYPHIMURIUM, Strain/Indicator: TA98, Metabolic Activation: NONE, Method: STANDARD PLATE); “inactive; negative” (Test System: AMES SALMONELLA TYPHIMURIUM, Strain/Indicator: TA98, Metabolic Activation: RAT, LIVER, S-9, PHENOBARBITAL AND 5,6-BENZOFLAVONE, Method: PREINCUBATION); “inactive; negative” (Test System: AMES SALMONELLA TYPHIMURIUM, Strain/Indicator: TA100, Metabolic Activation: NONE, Method: STANDARD PLATE); “inactive; negative” (Test System: AMES SALMONELLA TYPHIMURIUM, Strain/Indicator: TA100, Metabolic Activation: RAT, LIVER, S-9, PHENOBARBITAL AND 5,6-BENZOFLAVONE, Method: PREINCUBATION); “inactive; negative” (Test System: AMES SALMONELLA TYPHIMURIUM, Strain/Indicator: TA1535, Metabolic Activation: NONE, Method: STANDARD PLATE); “inactive; negative” (Test System: AMES SALMONELLA TYPHIMURIUM, Strain/Indicator: TA1535, Metabolic Activation: RAT, LIVER, S-9, PHENOBARBITAL AND 5,6-BENZOFLAVONE, Method: PREINCUBATION). Besides, the mutagenic call (Test System: AMES SALMONELLA TYPHIMURIUM, Strain/Indicator: TA1537, Metabolic Activation: NONE, Method: STANDARD PLATE) is “inactive; negative”; the mutagenic call (Test System: AMES SALMONELLA TYPHIMURIUM, Strain/Indicator: TA1537, Metabolic Activation: RAT, LIVER, S-9, PHENOBARBITAL AND 5,6-BENZOFLAVONE, Method: PREINCUBATION) was “inactive; negative”; the mutagenic call (Test System: AMES SALMONELLA TYPHIMURIUM, Strain/Indicator: TA1538, Metabolic Activation: NONE, Method: STANDARD PLATE) was “inactive; negative”; the mutagenic call (Test System: AMES SALMONELLA TYPHIMURIUM, Strain/Indicator: TA1538, Metabolic Activation: RAT, LIVER, S-9, PHENOBARBITAL AND 5,6-BENZOFLAVONE, Method: PREINCUBATION) is “inactive; negative”; the mutagenic call (Test System: E. COLI, Strain/Indicator: WP2 UVRA, Metabolic Activation: NONE, Method: STANDARD PLATE) is “inactive; negative”; the mutagenic call (Test System: E. COLI, Strain/Indicator: WP2 UVRA, Metabolic Activation: RAT, LIVER, S-9, PHENOBARBITAL AND 5,6-BENZOFLAVONE, Method: PREINCUBATION) is “inactive; negative”.

For the molecule `CC(=O)Nc1ccc(Cc2ccc(NC(C)=O)c(Cl)c2)cc1Cl`, the mutagenic call is, setting by setting: under setting [1], “inactive; negative”; (Test System: AMES SALMONELLA TYPHIMURIUM, Strain/Indicator: TA100, Metabolic Activation: RAT, LIVER, S-9, AROCLOR 1254 (50 µL), Method: PREINCUBATION) “inactive; negative”; (Test System: AMES SALMONELLA TYPHIMURIUM, Strain/Indicator: TA100, Metabolic Activation: RAT, LIVER, S-9, AROCLOR 1254 (100 OR 200 µL), Method: PREINCUBATION) “active; positive”.

For `C=C1C[C@@]23CC[C@H]4[C@@](C)(CCC[C@@]4(C)C(=O)O[C@@H]4O[C@H](CO)[C@@H](O)[C@H](O)[C@H]4O)[C@@H]2CC[C@]1(O[C@@H]1O[C@H](CO)[C@@H](O)[C@H](O)[C@H]1O[C@@H]1O[C@H](CO)[C@@H](O)[C@H](O)[C@H]1O)C3`, the mutagenic call is “inactive; negative” (Test System: AMES SALMONELLA TYPHIMURIUM, Strain/Indicator: TA97, Metabolic Activation: NONE, Method: PREINCUBATION); “inactive; negative” (Test System: AMES SALMONELLA TYPHIMURIUM, Strain/Indicator: TA97, Metabolic Activation: RAT, LIVER, S-9, PCB, Method: PREINCUBATION); “inactive; negative” (Test System: AMES SALMONELLA TYPHIMURIUM, Strain/Indicator: TA98, Metabolic Activation: RAT, LIVER, S-9, PCB, Method: PREINCUBATION); “active; positive” (Test System: AMES SALMONELLA TYPHIMURIUM, Strain/Indicator: TA98, Metabolic Activation: RAT, LIVER, S-9, SODIUM PHENOBARBITAL AND 5,6-BENZOFLAVONE, Method: PREINCUBATION); “inactive; negative” under setting [1]; “inactive; negative” (Test System: AMES SALMONELLA TYPHIMURIUM, Strain/Indicator: TA100, Metabolic Activation: RAT, LIVER, S-9, PCB, Method: PREINCUBATION). Besides, the mutagenic call is, setting by setting: (Test System: AMES SALMONELLA TYPHIMURIUM, Strain/Indicator: TA100, Metabolic Activation: RAT, LIVER, S-9, SODIUM PHENOBARBITAL AND 5,6-BENZOFLAVONE, Method: PREINCUBATION) “inactive; negative”; (Test System: AMES SALMONELLA TYPHIMURIUM, Strain/Indicator: TA102, Metabolic Activation: NONE, Method: PREINCUBATION) “inactive; negative”; (Test System: AMES SALMONELLA TYPHIMURIUM, Strain/Indicator: TA102, Metabolic Activation: RAT, LIVER, S-9, PCB, Method: PREINCUBATION) “inactive; negative”; (Test System: AMES SALMONELLA TYPHIMURIUM, Strain/Indicator: TA104, Metabolic Activation: NONE, Method: PREINCUBATION) “inactive; negative”; (Test System: AMES SALMONELLA TYPHIMURIUM, Strain/Indicator: TA104, Metabolic Activation: RAT, LIVER, S-9, PCB, Method: PREINCUBATION) “inactive; negative”; (Test System: AMES SALMONELLA TYPHIMURIUM, Strain/Indicator: TM677, Metabolic Activation: RAT, LIVER, S-9, AROCLOR 1254, Method: PREINCUBATION) “inactive; negative”.
